Experimental data reported in US6608047B2, “Use of low dosage amount of spironolactone for treatment of cardiovascular disease” (Pharmacia Corporation, priority 1995, dated 2003).

What was measured:
plasma aldosterone = conditions: hypertensive patients; J. Staessen et al 1981; cited from earlier work
myocardial fibrosis = conditions: cited from earlier work
[1] = tested on: patients with symptomatic heart failure; test: Human clinical trial (spironolactone dose-ranging study): clinical laboratory values and neurohormones; conditions: for Creatinine, Week 12 Mean Change / Hematocrit, Week 12 Mean Change / Hemoglobin, Week 12 Mean Change / N-Terminal ANF, Week 12 Mean Change / PRA, Week 12 Mean Change / Potassium, Week 12 Mean Change / Sodium, Week 12 Mean Change / Urinary aldosterone, Week 12 Mean Change: Week 12 vs baseline
[2] = tested on: patients with symptomatic heart failure; test: Human clinical trial (spironolactone dose-ranging study): hyperkalemia, adverse events, hospitalizations, deaths
Text: (§1) All statistical methods were two-sided.
In this analysis, the risk ratio can be thought of as the probability that the patient with the risk factor will develop hyperkalemia, relative to the probability that a patient without the risk factor will develop it.

hypertensive-rat cohort = conditions: spironolactone sub-cutaneously; C.G. Brilla et al 1993; cited from earlier work
[3] = tested on: patients with symptomatic heart failure; test: Human clinical trial (spironolactone dose-ranging study): cardiac assessments, weight and vital signs; assay type: in vivo
Text: as §1

C[C@H](CS)C(=O)N1CCC[C@H]1C(=O)O [Captopril, captopril]
Plasma aldosterone despite continued ACE inhibition (plasma aldosterone): gradual return of plasma aldosterone to baseline levels

CC(=O)S[C@@H]1CC2=CC(=O)CC[C@]2(C)[C@H]2CC[C@@]3(C)[C@@H](CC[C@@]34CCC(=O)O4)[C@H]12 [Spironolactone, 17-hydroxy-7α-mercapto-3-oxo-17α-pregn-4-ene-21-carboxylic acid γ-lactone acetate]
Myocardial fibrosis in animal models (myocardial fibrosis; D. Klug et al 1993): prevents myocardial fibrosis
Fibrosis in animal models (myocardial fibrosis; irrespective of left ventricular hypertrophy and hypertension, C.G. Brilla et al 1993): prevent fibrosis
Creatinine, Week 12 Mean Change ([1]; 12.5 mg/d): 6.83 µmol/L
Hematocrit, Week 12 Mean Change ([1]; 12.5 mg/d): 0.00%
Hemoglobin, Week 12 Mean Change ([1]; 12.5 mg/d): 0.12 mmol/L/Fe
N-Terminal ANF, Week 12 Mean Change ([1]; 12.5 mg/d): -287.30 pmol/L
PRA, Week 12 Mean Change ([1]; 12.5 mg/d): 9.90 NgAngl/L/s
Potassium, Week 12 Mean Change ([1]; 12.5 mg/d): 0.18 mmol/L
Sodium, Week 12 Mean Change ([1]; 12.5 mg/d): -1.61 mmol/L
Urinary aldosterone, Week 12 Mean Change ([1]; 12.5 mg/d): 4.21 nmol/D
Creatinine, Week 12 Mean Change ([1]; 25 mg/d): 9.30 µmol/L
Hematocrit, Week 12 Mean Change ([1]; 25 mg/d): −0.02%
Hemoglobin, Week 12 Mean Change ([1]; 25 mg/d): −0.20 mmol/L/Fe
N-Terminal ANF, Week 12 Mean Change ([1]; 25 mg/d): -294.60 pmol/L
PRA, Week 12 Mean Change ([1]; 25 mg/d): 9.33 NgAngl/L/s
Potassium, Week 12 Mean Change ([1]; 25 mg/d): 0.37 mmol/L
Sodium, Week 12 Mean Change ([1]; 25 mg/d): -1.85 mmol/L
Urinary aldosterone, Week 12 Mean Change ([1]; 25 mg/d): 4.27 nmol/D
Creatinine, Week 12 Mean Change ([1]; 50 mg/d): 14.06 µmol/L
Hematocrit, Week 12 Mean Change ([1]; 50 mg/d): −0.02%
Hemoglobin, Week 12 Mean Change ([1]; 50 mg/d): −0.31 mmol/L/Fe
N-Terminal ANF, Week 12 Mean Change ([1]; 50 mg/d): -351.30 pmol/L
PRA, Week 12 Mean Change ([1]; 50 mg/d): 13.18 NgAngl/L/s
Potassium, Week 12 Mean Change ([1]; 50 mg/d): 0.51 mmol/L
Sodium, Week 12 Mean Change ([1]; 50 mg/d): -2.52 mmol/L
Urinary aldosterone, Week 12 Mean Change ([1]; 50 mg/d): 8.11 nmol/D
Creatinine, Week 12 Mean Change ([1]; 75 mg/d): 21.90 µmol/L
Hematocrit, Week 12 Mean Change ([1]; 75 mg/d): −0.03%
Hemoglobin, Week 12 Mean Change ([1]; 75 mg/d): −0.46 mmol/L/Fe
N-Terminal ANF, Week 12 Mean Change ([1]; 75 mg/d): -370.60 pmol/L
PRA, Week 12 Mean Change ([1]; 75 mg/d): 10.23 NgAngl/L/s
Potassium, Week 12 Mean Change ([1]; 75 mg/d): 0.58 mmol/L
Sodium, Week 12 Mean Change ([1]; 75 mg/d): -3.37 mmol/L
Urinary aldosterone, Week 12 Mean Change ([1]; 75 mg/d): 11.13 nmol/D
Change from baseline in PRA, dose-response ([1]; Day 9, Week 4 and Week 12, higher doses): greater increases in PRA
N-Terminal Atrial Natriuretic Factor (ANF), change from baseline ([1]; all active treatments, all treatment visits): decreases from baseline
Urinary aldosterone excretion, change from baseline ([1]; all treatment groups, 12 week visit): mean increases from baseline
Change from baseline in serum potassium, dose-response ([1]; all treatment period visits, higher doses): larger increases in potassium
Deaths during the drug treatment period ([2]; all dose groups, 12 weeks): No deaths were reported
Hyperkalemia incidence, dose-response ([2]; human, in vivo): clear dose-response in term of incidence
Patients died within 30 days after the study was completed ([2]; previously at the 50 mg dose): Three
Fibrosis in the hypertensive-rat cohort (hypertensive-rat cohort): prevent fibrosis
Mean Change in Supine diastolic BP from Baseline to Week 12 ([3]; 12.5 mg/d): −0.19 (9.13)
Mean Change in Supine pulse from Baseline to Week 12 ([3]; 12.5 mg/d): −3.70 (9.56) BPM
Mean Change in Supine systolic BP from Baseline to Week 12 ([3]; 12.5 mg/d): 1.84 (11.82)
Mean Change in Weight from Baseline to Week 12 ([3]; 12.5 mg/d): 0.59 (3.00)
Mean systolic and diastolic blood pressure (standing and supine) ([3]; 25 mg, 50 mg and 75 mg groups, all visits): decreases in mean systolic and diastolic blood pressure
Mean Change in Supine diastolic BP from Baseline to Week 12 ([3]; 25 mg/d): −2.74 (9.57)
Mean Change in Supine pulse from Baseline to Week 12 ([3]; 25 mg/d): −1.40 (10.00) BPM
Mean Change in Supine systolic BP from Baseline to Week 12 ([3]; 25 mg/d): −4.46 (13.97)
Mean Change in Weight from Baseline to Week 12 ([3]; 25 mg/d): −0.16 (3.02)
Mean Change in Supine diastolic BP from Baseline to Week 12 ([3]; 50 mg/d): −5.11 (11.11)
Mean Change in Supine pulse from Baseline to Week 12 ([3]; 50 mg/d): −3.21 (11.27) BPM
Mean Change in Supine systolic BP from Baseline to Week 12 ([3]; 50 mg/d): −7.04 (15.83)
Mean Change in Weight from Baseline to Week 12 ([3]; 50 mg/d): 0.62 (2.05)
Changes from baseline in body weight ([3]; 75 mg dose group, Day 9 and Week 4): more weight loss than other patients
Mean Change in Supine diastolic BP from Baseline to Week 12 ([3]; 75 mg/d): −5.91 (9.05)
Mean Change in Supine pulse from Baseline to Week 12 ([3]; 75 mg/d): −1.07 (13.79) BPM
Mean Change in Supine systolic BP from Baseline to Week 12 ([3]; 75 mg/d): −5.68 (15.62)
Mean Change in Weight from Baseline to Week 12 ([3]; 75 mg/d): −0.81 (2.70)
Sodium retention score, dose response ([3]; Day 9 (p=0.019), not seen at later visits): more reduction in sodium retention score
Pulse in the supine position, dose response ([3]; Week 4 (p-value=0.045)): greater decreases in pulse in the supine position at higher doses
Changes in loop diuretic therapy ([3]; Week 8 (p=0.004), higher doses vs placebo, not observed at Week 12): decreases in the loop diuretic dose
NYHA Class ([3]; spironolactone groups vs placebo, difference not statistically significant): trend toward improvement
